Measurements from the supplement of paper PMC5844555.

How the values were obtained:
Experiment in all cases: 3' UTR reporter interaction score (median-centred robust z-score of log2 firefly/Renilla activity); higher = less repression of the 3' UTR reporter
Conditions in all cases: HEK293T; 48 h
[1] = test system: PHF6
In short: (§1)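 A firefly luc2P reporter carrying the gene's 3' UTR (100 ng), Renilla pRL-TK control (20 ng) and miRNA mimic (2.5 pmol) were co-transfected with DharmaFECT Duo into HEK293T cells plated at 10,000/well in 96-well plates. Luciferase activities were read 48 h post-transfection. The interaction score is the log firefly/Renilla ratio as a per-plate robust z-score from median and median absolute deviation, median-centred per miRNA, and more negative indicates interaction. Values are averages of at least two independent screens.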

[2] = test system: PHOX2B
In short: as §1

[3] = test system: FBXW7
In short: as §1

[4] = test system: RB1
In short: as §1

[5] = test system: MYC
In short: as §1

[6] = test system: MYT1L
In short: as §1

[7] = test system: MYB
In short: as §1

[8] = test system: NOTCH1
In short: as §1

[9] = test system: TP53
In short: as §1

[10] = test system: EZH2
In short: as §1

[11] = test system: HRAS
In short: as §1

[12] = test system: MYCN
In short: as §1

[13] = test system: ZEB2
In short: as §1

[14] = test system: BRCA2
In short: as §1

UUCACAGUGGCUAAGUUCUGC
3' UTR reporter interaction score [1]: 0.752
3' UTR reporter interaction score [2]: 0.845
3' UTR reporter interaction score [3]: -3.31
3' UTR reporter interaction score [4]: 0.0429
3' UTR reporter interaction score [5]: -0.0656
3' UTR reporter interaction score [6]: 0.34
3' UTR reporter interaction score [7]: 1.56
3' UTR reporter interaction score [8]: 1.04
3' UTR reporter interaction score [9]: -0.662
3' UTR reporter interaction score [10]: -0.367
3' UTR reporter interaction score [11]: -1.25
3' UTR reporter interaction score [12]: 0.736
3' UTR reporter interaction score [13]: 0.787
3' UTR reporter interaction score [14]: -0.687

UUCACCACCUUCUCCACCCAGC
3' UTR reporter interaction score [1]: -0.605
3' UTR reporter interaction score [2]: 0.365
3' UTR reporter interaction score [3]: -2.88
3' UTR reporter interaction score [4]: 0.874
3' UTR reporter interaction score [5]: 0.119
3' UTR reporter interaction score [6]: 0.639
3' UTR reporter interaction score [7]: 0.974
3' UTR reporter interaction score [8]: -0.224
3' UTR reporter interaction score [9]: -0.656
3' UTR reporter interaction score [10]: 0.425
3' UTR reporter interaction score [11]: 0.00141
3' UTR reporter interaction score [12]: 0.95
3' UTR reporter interaction score [13]: 1.21
3' UTR reporter interaction score [14]: -0.718

UUCCCUUUGUCAUCCUAUGCCU
3' UTR reporter interaction score [1]: 2.55
3' UTR reporter interaction score [2]: -5.45
3' UTR reporter interaction score [3]: -1.78
3' UTR reporter interaction score [4]: 0.112
3' UTR reporter interaction score [5]: -0.0967
3' UTR reporter interaction score [6]: -0.655
3' UTR reporter interaction score [7]: 0.747
3' UTR reporter interaction score [8]: -0.728
3' UTR reporter interaction score [9]: -0.382
3' UTR reporter interaction score [10]: 0.404
3' UTR reporter interaction score [11]: -0.0998
3' UTR reporter interaction score [12]: 0.146
3' UTR reporter interaction score [13]: 0.832
3' UTR reporter interaction score [14]: 0.265

UUCCCUUUGUCAUCCUUCGCCU
3' UTR reporter interaction score [1]: 0.344
3' UTR reporter interaction score [2]: -4.93
3' UTR reporter interaction score [3]: -1.31
3' UTR reporter interaction score [4]: 0.903
3' UTR reporter interaction score [5]: -0.168
3' UTR reporter interaction score [6]: -0.268
3' UTR reporter interaction score [7]: 0.781
3' UTR reporter interaction score [8]: -0.19
3' UTR reporter interaction score [9]: -0.355
3' UTR reporter interaction score [10]: 0.0327
3' UTR reporter interaction score [11]: -0.327
3' UTR reporter interaction score [12]: 0.0207
3' UTR reporter interaction score [13]: -0.675
3' UTR reporter interaction score [14]: 0.539
